The values that follow are results of earlier work, collected in patent US8518435B2 (priority 2011, dated 2013).

By IC50 is commonly meant the point on the concentration scale where inhibition reaches its midpoint.

Data set [1] concerns influenza virus. The note with it: mice infected with lethal doses of influenza virus, vs saline controls.
For data set [2], the system named is rhinovirus IB. The note with it: in vitro; J. Nat. Prod. (1994).
Data set [3] concerns bacteria, viruses, parasites, and yeast/mold/fungus. To be noted: in vitro (in a test tube).

Turning to `CC1(C)[C@@H](O[C@H]2O[C@H](C(=O)O)[C@@H](O)[C@H](O)[C@H]2O[C@@H]2O[C@H](C(=O)O)[C@@H](O)[C@H](O)[C@H]2O)CC[C@]2(C)[C@H]3C(=O)C=C4[C@@H]5C[C@@](C)(C(=O)O)CC[C@]5(C)CC[C@@]4(C)[C@]3(C)CC[C@@H]12` [glycyrrhizin], in data set [1], the lung damage result is reported as “less lung damage” and the protection from death result is “protected from death due to the virus”.
For beta-sesquiphellandrone, in data set [2], the IC50 was 0.44 µM.
As for `COC(=O)C1=CO[C@@H](C)[C@@H](C=O)[C@@H]1CC(=O)[O-].COC(=O)C1=CO[C@@H](C)[C@@H](C=O)[C@@H]1CC(=O)[O-].[Ca+2]` [calcium elenolate], the “effectiveness in eliminating organisms” value in data set [3] is recorded as “effective in eliminating a very broad range of organisms”.
